Several values for one entry are separate records, joined by “and”; a condition that tells them apart may be missing. Equal entries are not always repeated.
Tests used:
[1] = tested on: male rats of Wistar strain; assay: Animal trial: serum total cholesterol, HDL and LDL in rats on cholesterol diet; type: in vivo, rat; settings: for total cholesterol reduction (lowering) in comparison to the starting condition: 2 weeks; for HDL, Average / LDL, Average / Total cholesterol, Average: group average; for HDL / LDL / Total cholesterol: individual rat
Experimental: (§1) During the adaptation period, health was monitored by weighing and observing the animals. […] After 10 days of cholesterol-containing feed, all animals were in a state of hypercholesterolemia. One group served as the control, whereas group II, III, and IV received 0.5%, 1%, and 2% of KHCA (produced via the method of Example 2), respectively, in addition to the cholesterol diet. The salt solutions were given orally in 2 ml water daily. Group I received 2 ml of distilled water per 200 g body weight; group II received 1.03 mg KHCA in 2 ml water per 200 body weight; group III 2.06 mg; and group IV 4.12 mg. These treatments were continued for 2 weeks.
The animals were fasted for 12 hours prior to blood withdrawal. Rats were weighed and the 3-4 ml blood was obtained by amputating 2-3 cm of the tail. The blood was collected, let stand at room temperature for 30 minutes, and then centrifuged for 10-15 minutes. The serum was separated and refrigerated at 4° C. until ready for cholesterol analysis. Cholesterol level of the serum was analyzed using diagnostic kit (Boehringer Mannheim). Total cholesterol, LDL, and HDL were determined through spectrophotometric instrument (Hitachi). These are protocols frequently used in clinical laboratories.
Student's T-test was used to evaluate whether there was a difference between the control and each of the treated groups by comparing the data before and after the treatment. One-way variance analysis was performed to see if there was a statistically significant difference among the groups.

[2] = Animal trial: body weight, feed and water consumption, feces; type: in vivo, rat; settings: for Body weight: group average
Experimental: as §1

rats = settings: physiologic doses; cited from earlier work
[3] = animal model, U.S. Pat. No. 6,221,901; cited from earlier work
[4] = 0.5% KHCA (1.03 mg/day oral, 2 weeks), End Day 24
[5] = 0.5% KHCA group, Hypercholesterolemia Day 10 (before treatment)
[6] = 0.5% KHCA group, Start (before diet and treatment)
[7] = 1.0% KHCA (2.06 mg/day oral, 2 weeks), End Day 24
[8] = 1.0% KHCA group, Hypercholesterolemia Day 10 (before treatment)
[9] = 1.0% KHCA group, Start (before diet and treatment)
[10] = 2.0% KHCA (4.12 mg/day oral, 2 weeks), End Day 24
[11] = 2.0% KHCA group, Hypercholesterolemia Day 10 (before treatment)
[12] = 2.0% KHCA group, Start (before diet and treatment)
[13] = 2 ml of 2 percent daily for two weeks
[14] = 2 ml of 2 percent daily, value before the two weeks treatment
[15] = KHCA 0.5% group, Hyper-cholesterolemia (Day 10), before treatment
[16] = KHCA 0.5% group, Start (before diet and treatment)
[17] = KHCA 0.5%, 2 weeks oral, End (Day 24)
[18] = KHCA 1.0% group, Hyper-cholesterolemia (Day 10), before treatment
[19] = KHCA 1.0% group, Start (before diet and treatment)
[20] = KHCA 1.0%, 2 weeks oral, End (Day 24)
[21] = KHCA 2.0% group, Hyper-cholesterolemia (Day 10), before treatment
[22] = KHCA 2.0% group, Start (before diet and treatment)
[23] = KHCA 2.0%, 2 weeks oral, End (Day 24)
[24] = KHCA administration versus control group

In the case of `O=C([O-])CC(O)(C(=O)[O-])C(O)C(=O)[O-].[K+].[K+].[K+]` (centres unmarked) [KHCA, Potassium HCA Salt], the “total cholesterol reduction (lowering) in comparison to the starting condition” value (“total cholesterol reduction (lowering)” below) ([1]; 0.5% K-HCA) is reported as 1.6 mg·dL, the “HDL, Average” value [1, 4] is reported as 49.2 mg/dL and the “LDL, Average” value [1, 4] is reported as 64.6 mg/dL. For the same compound, the “Total cholesterol, Average” value [1, 4] was 79.2 mg/dL, the HDL [1, 4] was 40 mg/dL and 59 mg/dL and 43 mg/dL and 53 mg/dL and 51 mg/dL and the LDL [1, 4] was 59 mg/dL and 77 mg/dL and 71 mg/dL and 60 mg/dL and 56 mg/dL. The Total cholesterol [1, 4] was 82 mg/dL and 80 mg/dL and 76 mg/dL and 79 mg/dL (2×), the “HDL, Average” value [1, 5] was 31 mg/dL and the “LDL, Average” value [1, 5] was 63.2 mg/dL. The “Total cholesterol, Average” value [1, 5] was 81 mg/dL, the HDL [1, 5] was 27 mg/dL and 28 mg/dL and 39 mg/dL and 31 mg/dL and 30 mg/dL and the LDL [1, 5] was 60 mg/dL (2×) and 70 mg/dL and 67 mg/dL and 59 mg/dL. The Total cholesterol [1, 5] was 83 mg/dL and 84 mg/dL and 76 mg/dL and 80 mg/dL and 82 mg/dL, the “HDL, Average” value [1, 6] was 39 mg/dL and the “LDL, Average” value [1, 6] was 28.8 mg/dL. The “Total cholesterol, Average” value [1, 6] was 72.6 mg/dL, the HDL [1, 6] was 37 mg/dL and 40 mg/dL and 41 mg/dL and 39 mg/dL and 38 mg/dL and the LDL [1, 6] was 31 mg/dL and 28 mg/dL and 33 mg/dL and 27 mg/dL and 25 mg/dL. For the same compound, the Total cholesterol [1, 6] was 74 mg/dL and 73 mg/dL and 69 mg/dL and 72 mg/dL and 75 mg/dL, the “HDL, Average” value [1, 7] was 53 mg/dL and the “LDL, Average” value [1, 7] was 58.2 mg/dL. For the same compound, the “Total cholesterol, Average” value [1, 7] was 71 mg/dL, the HDL [1, 7] was 58 mg/dL and 60 mg/dL and 49 mg/dL and 46 mg/dL and 52 mg/dL and the LDL [1, 7] was 69 mg/dL and 51 mg/dL and 48 mg/dL and 60 mg/dL and 63 mg/dL. For the same compound, the Total cholesterol [1, 7] was 73 mg/dL and 71 mg/dL and 75 mg/dL and 69 mg/dL and 67 mg/dL, the “HDL, Average” value [1, 8] was 31.8 mg/dL and the “LDL, Average” value [1, 8] was 60.4 mg/dL. The “Total cholesterol, Average” value [1, 8] was 79.6 mg/dL, the HDL [1, 8] was 28 mg/dL and 37 mg/dL (2×) and 30 mg/dL and 27 mg/dL and the LDL [1, 8] was 67 mg/dL and 59 mg/dL and 54 mg/dL and 60 mg/dL and 62 mg/dL. For the same compound, the Total cholesterol [1, 8] was 75 mg/dL and 82 mg/dL and 84 mg/dL and 80 mg/dL and 77 mg/dL, the “HDL, Average” value [1, 9] was 39 mg/dL and the “LDL, Average” value [1, 9] was 29 mg/dL. The “Total cholesterol, Average” value [1, 9] was 72.6 mg/dL, the HDL [1, 9] was 36 mg/dL and 40 mg/dL and 43 mg/dL and 39 mg/dL and 37 mg/dL and the LDL [1, 9] was 28 mg/dL and 29 mg/dL and 33 mg/dL and 30 mg/dL and 25 mg/dL. For the same compound, the Total cholesterol [1, 9] was 69 mg/dL and 74 mg/dL and 72 mg/dL and 75 mg/dL and 73 mg/dL, the “total cholesterol reduction (lowering)” value ([1]; 1.0% KHCA) was 2.06 mg·dL and the “change of HDL concentration in blood serum” value ([1]; 2.0% (4.12 mg) KHCA daily, control group decreased) was “increased”. For the same compound, the “total cholesterol reduction (lowering)” value ([1]; 2.0% KHCA (4.12 mg daily)) was 12.2 mg·dL, the “HDL, Average” value [1, 10] was 63.4 mg/dL and the “LDL, Average” value [1, 10] was 50 mg/dL. For the same compound, the “Total cholesterol, Average” value [1, 10] was 61.2 mg/dL, the HDL [1, 10] was 64 mg/dL and 61 mg/dL and 67 mg/dL and 59 mg/dL and 66 mg/dL and the LDL [1, 10] was 61 mg/dL and 46 mg/dL and 50 mg/dL and 44 mg/dL and 49 mg/dL. The Total cholesterol [1, 10] was 59 mg/dL and 66 mg/dL and 52 mg/dL and 58 mg/dL and 71 mg/dL, the “HDL, Average” value [1, 11] was 34.6 mg/dL and the “LDL, Average” value [1, 11] was 63.2 mg/dL. For the same compound, the “Total cholesterol, Average” value [1, 11] was 82 mg/dL, the HDL [1, 11] was 31 mg/dL and 37 mg/dL and 40 mg/dL and 33 mg/dL and 32 mg/dL and the LDL [1, 11] was 69 mg/dL and 61 mg/dL and 59 mg/dL and 60 mg/dL and 67 mg/dL. For the same compound, the Total cholesterol [1, 11] was 83 mg/dL and 85 mg/dL and 81 mg/dL and 79 mg/dL and 82 mg/dL, the “HDL, Average” value [1, 12] was 38.8 mg/dL and the “LDL, Average” value [1, 12] was 29.8 mg/dL. The “Total cholesterol, Average” value [1, 12] was 73.4 mg/dL, the HDL [1, 12] was 38 mg/dL and 40 mg/dL and 41 mg/dL and 36 mg/dL and 39 mg/dL and the LDL [1, 12] was 31 mg/dL and 29 mg/dL and 26 mg/dL and 33 mg/dL and 30 mg/dL. The Total cholesterol [1, 12] was 75 mg/dL and 70 mg/dL and 72 mg/dL and 73 mg/dL and 77 mg/dL, the “HDL level, after treatment” value [1, 13] was 63 mg/dL and the “serum cholesterol LDL level, after treatment” value [1, 13] was 50 mg·dL. The “HDL level, before treatment” value [1, 14] was 35 mg/dL, the “serum cholesterol LDL level, before treatment” value [1, 14] was 63 mg/dL and the “LDL/HDL Ratio” value [1, 15] was 2.04. For the same compound, the “Total Cholesterol/HDL” value [1, 15] was 2.61, the “LDL/HDL Ratio” value [1, 16] was 0.74 and the “Total Cholesterol/HDL” value [1, 16] was 1.86. The “LDL/HDL Ratio” value [1, 17] was 1.31, the “Total Cholesterol/HDL” value [1, 17] was 1.61 and the “LDL/HDL Ratio” value [1, 18] was 1.9. The “Total Cholesterol/HDL” value [1, 18] was 2.50, the “LDL/HDL Ratio” value [1, 19] was 0.74 and the “Total Cholesterol/HDL” value [1, 19] was 1.86. The “LDL/HDL Ratio” value [1, 20] was 1.1, the “Total Cholesterol/HDL” value [1, 20] was 1.34 and the “LDL/HDL Ratio” value [1, 21] was 1.83. For the same compound, the “Total Cholesterol/HDL” value [1, 21] was 2.36, the “LDL/HDL Ratio” value [1, 22] was 0.77 and the “Total Cholesterol/HDL” value [1, 22] was 1.89. For the same compound, the “LDL/HDL Ratio” value [1, 23] was 0.79, the “Total Cholesterol/HDL” value [1, 23] was 0.97 and the Body weight ([2]; 0.5% KHCA (1.03 mg/day oral), At Hypercholesterolemia, before treatment) was 202.4 grams. The Body weight ([2]; 0.5% KHCA (1.03 mg/day oral), End of Experiment, after 2 weeks treatment) was 199.5 grams, the Body weight ([2]; 0.5% KHCA (1.03 mg/day oral), Start of Experiment, before cholesterol diet and treatment) was 162.8 grams and the Body weight ([2]; 1.0% KHCA (2.06 mg/day oral), At Hypercholesterolemia, before treatment) was 195.0 grams. It also gave a Body weight ([2]; 1.0% KHCA (2.06 mg/day oral), End of Experiment, after 2 weeks treatment) of 193.2 grams, a Body weight ([2]; 1.0% KHCA (2.06 mg/day oral), Start of Experiment, before cholesterol diet and treatment) of 157.7 grams and a Body weight ([2]; 2.0% KHCA (4.12 mg/day oral), At Hypercholesterolemia, before treatment) of 192.7 grams. For the same compound, the Body weight ([2]; 2.0% KHCA (4.12 mg/day oral), End of Experiment, after 2 weeks treatment) was 183.7 grams, the Body weight ([2]; 2.0% KHCA (4.12 mg/day oral), Start of Experiment, before cholesterol diet and treatment) was 166.9 grams and the “effect on body weight” value [2, 13] was “reduced body weight”. For the same compound, the feces consistency [2, 24] was “softer”, the feed consumption [2, 24] was “lower feed consumption” and the “benefits with regard to insulin metabolism and blood pressure regulation” value (rats) was “significant results”.
For `O=C([O-])CC(O)(C(=O)[O-])C(O)C(=O)[O-].[K+].[Mg+2]` (centres unmarked) [potassium-magnesium HCA, Potassium-Magnesium Hydroxycitrate Salt], the “benefits with regard to insulin metabolism and blood pressure regulation” value (rats) is given as “significant results”.
For Magnesium HCA, the “increase in HDL” value [3] is listed as 8.5%.
